Measured values reported in patent US10202650B2, “Methods for monitoring ELOVL2, KLF14 and PENK gene expression following treatment with vitamin C” (The Regents of the University of California, priority 2016, dated 2019).

Columns and labels:
Type in all cases: cell-based, human
WI38 fibroblasts = assay: Proliferation (confluency) of WI38 fibroblasts, Example 1; conditions: for cell proliferation: concentration not stated
Procedure: (§1) The proliferation effects of vitamin C on WI38 fibroblasts were tested. This cell line is useful as an aging model since it is a mortal human cell line that follows the Hayflick limit, in that it undergoes a certain number of cell divisions before stopping. The senescence level in WI38 increased as the cell line divided. […] A membrane-soluble derivative of vitamin C, 6-O-Palmitoyl-L-ascorbic acid (PalmAA), which has an additional fatty acid that allows it to pass through the cell membrane, was also tested. The oxidized derivative of vitamin C, dehydroascorbic acid (DHAA), as Vitamin C is actively converted to DHAA in cell culture media, was tested as well. Insulin was also added to this experiment to upregulate Glut-1 transporter, through which DHAA enters the cell.
A) Cell images of 12-well plate treated with low concentration vitamin C at Day 0, 4 and 5 for PD46. B) Confluency plot calculated through ImageJ of PD46, n=2. C) and D) Expression graphs for ARM (e.g., ELOVL2) and SLC2A1 for PD46, n=3. E) Cell images of 12-well treated with high concentration vitamin C at Day 0, 4 and 5 for PD48. F) Confluency plot calculated through ImageJ of PD48, n=2. G) and […]) Expression graphs for ARM and SLC2A1 for PD48, n=3.
FIG. 2 illustrates phenotypic and genotypic effects of vitamin C treatment were analyzed on younger WI38 PD42 and older WI38 PD58 fibroblasts. A) Cell images of 12-well at Day 0, 1 and 2 of treatment for PD42. B) Confluency plot calculated through ImageJ of PD42, n=2. C) and D) Expression graphs for ARM (e.g., ELOVL2) and SLC2A1 for PD42, n=3. E) Cell images of 12-well at Day 0, 5 and 7 of treatment for PD58. F) Confluency plot calculated through ImageJ of PD58, n=2. G) and H) Expression graphs for ARM (e.g., ELOVL2) and SLC2A1 for […], n=3. I) Cell images of senescence and DAPI staining of PD45.5 fibroblasts. J) Graph of percentage senescence for younger PD32 fibroblast and older PD45.5 fibroblast. n=3.
A) Cell images of 12-well at Day 0 and Day 8 of treatment for PD55. B) Confluency plot calculated through ImageJ for PD55, n=2. C) and D) Expression graph for ARM (e.g., ELOVL2) and SLC2A1 for PD55, n=3.
A) Diagram of postulated pathway for interconversion of DHAA to vitamin C and their effect on fibroblast cells. B) Cell images of 12-well at Day 10 of treatment for PD54. C) Confluency plot calculated through ImageJ of PD54, n=2. D and E) Expression graphs for ARM (e.g., ELOVL2) and SLC2A1 for PD54, n=3. F) Graph of percentage senescence for younger PD32 fibroblast and older PD45.5 fibroblast. n=3. G) Fluorescent ROS assay showing fluorescent ROS relative to total fibroblasts in PD48 fibroblasts.

WI38 cells at PD55 [1] = assay: WI38 PD55 confluency / cell proliferation, Example 6
Procedure: (§2) WI38 cells at PD55 (55th population doubling) were incubated with different concentrations of vitamin C (Vc), L-dehydro ascorbic acid (DHAA or DHA), or L-ascorbic acid 2-phosphate (VcP). DHAA (or DHA) is an oxidized form of vitamin C. L-ascorbic acid 2-phosphate (VcP) is a vitamin C derivative. Three concentrations were used for each tested compound and the concentrations included 0.3 mM (equivalent to […]), 1.2 mM, or 1.8 mM.

WI38 cells at PD55 [2] = assay: Cell senescence of WI38 PD55 by beta gal staining assay
Procedure: as §2

aged fibroblast = assay: Reversal of biological age / reprogramming of aged fibroblast into iPSCs; conditions: low concentration
Procedure: As used herein, the terms “biological age (bioage),” “chemical age,” “methylomic age,” and “molecular age” are equivalent or synonymous. The biological age is determined using a set of age-associated markers (e.g., epigenetic markers) of a subject or an organism. In the current disclosure, the biological age is determined from an analysis of the modification status of specific CpG dinucleotide and, in particular, e.g., the methylation status at the C-5 position of cytosine.

ELOVL2 [3] = assay: ELOVL2 expression in aging WI38 cells (PD55)
Procedure: as §2
The expression of ELOVL2 is also observed to be increased with a low concentration of vitamin C and all concentrations of L-ascorbic acid 2-phosphate (VcP) but not with DHAA (FIG. 27).

ELOVL2 [4] = assay: Expression of age-related marker (ARM, e.g. ELOVL2) in WI38 fibroblasts, Example 1
Procedure: as §1
A) Cell images of 12-well plate treated with low concentration vitamin C at Day 0, 4 and 5 for PD46. B) Confluency plot calculated through ImageJ of PD46, n=2. […] F) Confluency plot calculated through ImageJ of PD48, n=2. […]
FIG. 2 illustrates phenotypic and genotypic effects of vitamin C treatment were analyzed on younger WI38 PD42 and older WI38 PD58 fibroblasts. […] B) Confluency plot calculated through ImageJ of PD42, n=2. […] F) Confluency plot calculated through ImageJ of PD58, n=2. […]
A) Cell images of 12-well at Day 0 and Day 8 of treatment for PD55. B) Confluency plot calculated through ImageJ for PD55, n=2. […]

[5] = all three concentrations (0.3 mM, 1.2 mM, 1.8 mM)
[6] = all concentrations (0.3 mM, 1.2 mM, 1.8 mM)

O=C1O[C@H]([C@@H](O)CO)C(O)=C1O [vitamin C, L-ascorbic acid]
proliferative effect, older vs younger fibroblast cells (WI38 fibroblasts; 50 μg/mL): more pronounced on older fibroblast cells compared to younger fibroblast cells
fibroblast cell growth / cell death (WI38 fibroblasts; higher concentrations, 200 μg/mL to 500 μg/mL): slowed or inhibited fibroblast cell growth while causing cell death
fibroblast proliferation (WI38 fibroblasts; low concentrations, 50 μg/mL to 100 μg/mL): induced fibroblast proliferation
cell proliferation rate (WI38 cells at PD55 [1]; higher concentration, 1.2 mM or 1.8 mM, relative to 0.3 mM): slower cell proliferation rate relative to the concentration at 0.3 mM
cell proliferation (WI38 cells at PD55 [1]; low concentration, 0.3 mM): increase cell proliferation
protection against cell senescence (WI38 cells at PD55 [2]; low concentration): protective against cell senescence
biological age (aged fibroblast): reversed
reprogramming of aged fibroblast into iPSCs (aged fibroblast): reverted into iPSCs from aged fibroblast
expression of ELOVL2 (ELOVL2 [3]; low concentration): increased

O=C1O[C@H]([C@@H](O)CO)C(O)=C1OP(=O)(O)O [L-ascorbic acid 2-phosphate]
cell proliferation (WI38 cells at PD55 [1]; [5]): cell proliferation is observed
protection against cell senescence (WI38 cells at PD55 [2]; [6]): protective against cell senescence
expression of ELOVL2 (ELOVL2 [3]; [6]): increased

CCCCCCCCCCCCCCCC(=O)OC[C@H](O)[C@H]1OC(=O)C(O)=C1O [6-O-Palmitoyl L-ascorbic acid, 6-O-Palmitoyl-L-ascorbic acid]
cell proliferation (WI38 fibroblasts): induced minimal proliferation
gene expression change in the age related marker (ELOVL2 [4]): caused no gene expression change in the age related marker

O=C1O[C@H]([C@@H](O)CO)C(=O)C1=O [DHAA, dehydroascorbic acid]
cell proliferation (WI38 fibroblasts): induced lower cell proliferation compared to an equal concentration of vitamin C
cell proliferation (WI38 cells at PD55 [1]; [5]): increased cell proliferation is not observed
protection against cell senescence (WI38 cells at PD55 [2]; [6]): did not exert a protective effect against cell senescence
expression of ELOVL2 (ELOVL2 [3]; [6]): not
